Measurements from US20250059164A1, “IRAK DEGRADERS AND USES THEREOF” (Kymera Therapeutics, Inc., priority 2023, published 2025).

How the values were obtained:
[1] = target: T1, IRAK4 (Homo sapiens, UniProt Q9NWZ3); assay: IRAK4 MSD degradation in OCI-LY10; format: cell-based; conditions: OCI-LY10 cells, 24 hrs, Meso Scale Discovery
T1 construct: endogenous in cells; host or cells: OCI-LY10
T1 sequence (Q9NWZ3 1-460): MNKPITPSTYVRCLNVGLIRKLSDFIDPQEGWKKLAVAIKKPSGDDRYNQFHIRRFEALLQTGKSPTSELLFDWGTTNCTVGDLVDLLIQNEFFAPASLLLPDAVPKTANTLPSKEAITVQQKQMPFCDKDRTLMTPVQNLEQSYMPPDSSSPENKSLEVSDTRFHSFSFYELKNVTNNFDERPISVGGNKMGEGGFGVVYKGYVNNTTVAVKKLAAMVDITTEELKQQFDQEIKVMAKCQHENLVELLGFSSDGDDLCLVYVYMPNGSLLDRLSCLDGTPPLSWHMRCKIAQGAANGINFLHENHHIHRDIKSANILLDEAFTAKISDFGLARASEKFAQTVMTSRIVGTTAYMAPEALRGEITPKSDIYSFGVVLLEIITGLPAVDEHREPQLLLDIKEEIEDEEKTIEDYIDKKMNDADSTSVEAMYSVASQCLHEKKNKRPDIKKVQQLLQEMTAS
How it was run: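 OCI-LY10 cells treated 4 to 24 hours at 37° C. with 8-dose 1:3 series, top 1 to 10 μM. IRAK4 in lysates quantified by MSD sandwich immunoassay (mouse capture, rabbit detection, SULFO-TAG anti-rabbit). DC50 from three-parameter logistic fit.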

[2] = Rodent pharmacokinetics (rat PK); format: in vivo; conditions: po, dosed intravenously or orally by gavage, plasma, read-out: F % (bioavailability)
How it was run: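 Rats were dosed IV or by oral gavage, with jugular blood taken predose and at 5 min (IV only), 15, 30 min and 1, 2, 4, 8, 24 h. Plasma was separated by centrifugation at 4 °C. Oral bioavailability (F %) is coded A (≥5%) or B (≤5%).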

| DC50 [1] | bioavailability [2] | Structure (SMILES) |
| --- | --- | --- |
| < 10 nM | ≥ 5% | Cn1nc(C2CCC(=O)NC2=O)c2cccc([C@H]3CCN(C[C@H]4CC[C@H](n5cc6cc(NC(=O)c7cncc(C#N)c7)c(C(C)(C)O)cc6n5)CC4)C[C@@H]3F)c21 (single isomer, unassigned) [I-363] |
| < 10 nM | ≥ 5% | Cn1nc(C2CCC(=O)NC2=O)c2cccc([C@@H]3CCN(C[C@H]4CC[C@H](n5cc6cc(NC(=O)c7cncc(C(F)(F)F)n7)ncc6n5)CC4)C[C@H]3F)c21 (single isomer, unassigned) [I-370] |
| < 10 nM | ≤ 5% | Cn1c(=O)n(C2CCC(=O)NC2=O)c2cccc([C@H]3CCN(C[C@H]4CC[C@H](n5cc6cc(NC(=O)c7cncc(C#N)c7)c(C(C)(C)O)cc6n5)CC4)CC3(F)F)c21 (single isomer, unassigned) [I-390] |
| < 10 nM | ≥ 5% | COc1ccc2c(c1[C@H]1CCN(C[C@H]3CC[C@H](n4cc5cc(NC(=O)c6cncc(C(F)(F)F)n6)ccc5n4)CC3)CC1(F)F)n(C)c(=O)n2C1CCC(=O)NC1=O (single isomer, unassigned) [I-392] |
| 10 to 100 nM | ≤ 5% | Cn1c(=O)n(C2CCC(=O)NC2=O)c2cccc([C@@H]3CCN(C[C@H]4CC[C@H](n5cc6cc(NC(=O)c7cccc(C(F)(F)F)n7)c(N7CCN(C8CC8)CC7)cc6n5)CC4)C[C@H]3F)c21 (stereo partly shown) [I-107] |
| 10 to 100 nM | ≥ 5% | Cn1c(=O)n(C2CCC(=O)NC2=O)c2cccc(C#CCOC[C@H]3CC[C@H](n4cc(NC(=O)c5cnn6ccc(N7C[C@H]8C[C@@H]7CO8)nc56)c(C(F)F)n4)CC3)c21 (stereo partly shown) [I-108] |
| 10 to 100 nM | ≤ 5% | COc1cc2nc([C@H]3CC[C@H](CN4CCC5(CN(c6cccc7c6n(C)c(=O)n7C6CCC(=O)NC6=O)C5)C(F)(F)C4)CC3)sc2cc1NC(=O)c1cncc(C#N)c1 (stereo partly shown) [I-110] |
| > 200 nM | ≤ 5% | Cn1c(=O)n(C2CCC(=O)NC2=O)c2cccc(N3CC(COC[C@H]4CC[C@H](n5cc(NC(=O)c6cnn7ccc(N8C[C@H]9C[C@@H]8CO9)nc67)c(C(F)F)n5)CC4)C3)c21 (stereo partly shown) [I-111] |
| < 10 nM | ≤ 5% | COc1cc2nn([C@H]3CC[C@H](CN4CCC5(CCN(c6cccc7c6n(C)c(=O)n7C6CCC(=O)NC6=O)CC5)C(F)(F)C4)CC3)cc2cc1NC(=O)c1cncc(F)c1 (stereo partly shown) [I-127] |
| 10 to 100 nM | ≤ 5% | COc1cc2nn([C@H]3CC[C@H](CN4CCC5(CN(c6ccc(C7CCC(=O)NC7=O)c(Cl)c6)C5)C(F)(F)C4)CC3)cc2cc1NC(=O)c1cncc(C#N)c1 (stereo partly shown) [I-128] |
| < 10 nM | ≤ 5% | Cn1c(=O)n(C2CCC(=O)NC2=O)c2cccc([C@@H]3CCN(C[C@H]4CC[C@H](n5cc6cc(NC(=O)c7cncc(C#N)c7)ccc6n5)CC4)C[C@H]3F)c21 (stereo partly shown) [I-129] |
| < 10 nM | ≤ 5% | COc1cc2nn([C@H]3CC[C@H](CN4CC[C@@H](c5c(Cl)ccc6c5n(C)c(=O)n6C5CCC(=O)NC5=O)[C@H](F)C4)CC3)cc2cc1NC(=O)c1cncc(C#N)c1 (stereo partly shown) [I-133] |
| < 10 nM | ≥ 5% | CN(C[C@H]1CC[C@H](c2nc3cc(C(C)(C)O)c(NC(=O)c4cccc(C(F)(F)F)n4)cc3o2)CC1)[C@@H]1CCN(c2cccc3c2n(C)c(=O)n3C2CCC(=O)NC2=O)C[C@H]1F (stereo partly shown) [I-137] |
| < 10 nM | ≥ 5% | COc1cc2nn([C@H]3CC[C@H](CN4CC[C@@H](c5cccc6c5n(C)c(=O)n6C5CCC(=O)NC5=O)[C@H](F)C4)CC3)cc2cc1C(=O)Nc1cccc(C(F)(F)F)c1 (stereo partly shown) [I-142] |
| < 10 nM | ≤ 5% | Cn1c(=O)n(C2CCC(=O)NC2=O)c2cccc([C@@H]3CCN(C[C@H]4CC[C@H](n5cc6cc(NC(=O)c7csc(C(F)(F)F)n7)ccc6n5)CC4)C[C@H]3F)c21 (stereo partly shown) [I-149] |
| < 10 nM | ≤ 5% | Cn1c(=O)n(C2CCC(=O)NC2=O)c2cccc([C@@H]3CCN(C[C@H]4CC[C@H](n5cc6cc(NC(=O)c7nc(C(F)(F)F)cs7)ccc6n5)CC4)C[C@H]3F)c21 (stereo partly shown) [I-154] |
| < 10 nM | ≥ 5% | Cn1c(=O)n(C2CCC(=O)NC2=O)c2cccc([C@@H]3CCN(C[C@H]4CC[C@H](c5nc6cc(C(C)(C)O)c(NC(=O)c7cncc(C(F)(F)F)c7)cc6s5)CC4)C[C@H]3F)c21 (stereo partly shown) [I-163] |
| < 10 nM | ≤ 5% | Cn1c(=O)n(C2CCC(=O)NC2=O)c2cccc([C@@H]3CCN(C[C@H]4CC[C@H](c5nc6cc(C(C)(C)O)c(NC(=O)c7cccc(C(F)(F)F)c7)cc6s5)CC4)C[C@H]3F)c21 (stereo partly shown) [I-169] |

The remaining lines, values behind:

| Structure (SMILES) | DC50 [1] | bioavailability [2] |
| --- | --- | --- |
| Cn1nc(C2CCC(=O)NC2=O)c2cccc([C@@H]3CCN(C[C@H]4CC[C@H](n5cc6cc(NC(=O)c7cncc(C#N)c7)c(C(C)(C)O)cc6n5)CC4)C[C@H]3F)c21 (single isomer, unassigned) [I-362] | < 10 nM | ≥ 5% |
| Cc1nn(C2CCC(=O)NC2=O)c2cccc([C@@H]3CCN(C[C@H]4CC[C@H](n5cc6cc(NC(=O)c7cncc(C(F)(F)F)n7)ccc6n5)CC4)CC3(F)F)c12 (single isomer, unassigned) [I-371] | 10 to 100 nM | ≥ 5% |
| Cc1nn(C2CCC(=O)NC2=O)c2cccc([C@H]3CCN(C[C@H]4CC[C@H](n5cc6cc(NC(=O)c7cncc(C(F)(F)F)n7)ccc6n5)CC4)CC3(F)F)c12 (single isomer, unassigned) [I-372] | 10 to 100 nM | ≥ 5% |
| Cn1c(=O)n(C2CCC(=O)NC2=O)c2ccc(F)c([C@H]3CCN(C[C@H]4CC[C@H](n5cc6cc(NC(=O)c7cncc(C#N)c7)c(C(C)(C)O)cc6n5)CC4)CC3(F)F)c21 (single isomer, unassigned) [I-383] | < 10 nM | ≤ 5% |
| Cn1c(=O)n(C2CCC(=O)NC2=O)c2cccc([C@@H]3CCN(C[C@H]4CC[C@H](n5cc6cc(NC(=O)c7cncc(C#N)c7)c(C(C)(C)O)cc6n5)CC4)CC3(F)F)c21 (single isomer, unassigned) [I-389] | < 10 nM | ≤ 5% |
| COc1ccc2c(c1[C@@H]1CCN(C[C@H]3CC[C@H](n4cc5cc(NC(=O)c6cncc(C(F)(F)F)n6)ccc5n4)CC3)CC1(F)F)n(C)c(=O)n2C1CCC(=O)NC1=O (single isomer, unassigned) [I-391] | < 10 nM | ≥ 5% |
| Cn1c(=O)n(C2CCC(=O)NC2=O)c2cccc(CCCOC[C@H]3CC[C@H](n4cc(NC(=O)c5cnn6ccc(N7C[C@H]8C[C@@H]7CO8)nc56)c(C(F)F)n4)CC3)c21 (stereo partly shown) [I-109] | > 200 nM | ≤ 5% |
| Cn1c(=O)n(C2CCC(=O)NC2=O)c2ccc(F)c(N3CC(N4CCN([C@H]5CC[C@H](n6cc(NC(=O)c7cnn8ccc(N9C[C@H]%10C[C@@H]9CO%10)nc78)c(C(F)F)n6)CC5)CC4)C3)c21 (stereo partly shown) [I-117] | < 10 nM | ≥ 5% |
| COc1cc2nn([C@H]3CC[C@H](CN4CCC5(CCN(c6cccc7c(C8CCC(=O)NC8=O)nn(C)c67)CC5)C(F)(F)C4)CC3)cc2cc1NC(=O)c1cncc(C#N)c1 (stereo partly shown) [I-132] | < 10 nM | ≤ 5% |
| Cn1c(=O)n(C2CCC(=O)NC2=O)c2cccc([C@@H]3CCN(C[C@H]4CC[C@H](n5cc6cc(NC(=O)c7cc(C(F)(F)F)ccn7)ccc6n5)CC4)C[C@H]3F)c21 (stereo partly shown) [I-134] | > 200 nM | ≥ 5% |
| Cn1c(=O)n(C2CCC(=O)NC2=O)c2cccc(N3CC[C@H](NC[C@H]4CC[C@H](n5cc(NC(=O)c6cnn7ccc(N8C[C@H]9C[C@@H]8CO9)nc67)c(C(F)F)n5)CC4)[C@@H](F)C3)c21 (stereo partly shown) [I-135] | < 10 nM | ≥ 5% |
| Cn1c(=O)n(C2CCC(=O)NC2=O)c2cccc(N3CCC4(CCN(C[C@H]5CC[C@H](n6cc7cc(NC(=O)c8cccc(C(F)(F)F)c8)ncc7n6)CC5)CC4(F)F)CC3)c21 (stereo partly shown) [I-141] | 10 to 100 nM | ≤ 5% |
| Cc1nc(C(=O)Nc2ccc3nn([C@H]4CC[C@H](CN5CC[C@@H](c6cccc7c6n(C)c(=O)n7C6CCC(=O)NC6=O)[C@H](F)C5)CC4)cc3c2)co1 (stereo partly shown) [I-148] | < 10 nM | ≤ 5% |
| Cn1cc(Cl)c(C(=O)Nc2ccc3nn([C@H]4CC[C@H](CN5CC[C@@H](c6cccc7c6n(C)c(=O)n7C6CCC(=O)NC6=O)[C@H](F)C5)CC4)cc3c2)n1 (stereo partly shown) [I-155] | > 200 nM | ≤ 5% |
| Cn1c(=O)n(C2CCC(=O)NC2=O)c2cccc([C@@H]3CCN(C[C@H]4CC[C@H](n5cc6cc(NC(=O)c7cncc(C(F)(F)F)n7)ncc6n5)CC4)C[C@H]3F)c21 (stereo partly shown) [I-156] | < 10 nM | ≤ 5% |
| Cn1c(=O)n(C2CCC(=O)NC2=O)c2cccc([C@@H]3CCN(C[C@H]4CC[C@H](c5nc6cc(C(C)(C)O)c(NC(=O)c7cccc(C(F)(F)F)n7)cc6o5)CC4)C[C@H]3F)c21 (stereo partly shown) [I-167] | < 10 nM | ≥ 5% |
| Cn1c(=O)n(C2CCC(=O)NC2=O)c2cccc([C@@H]3CCN(C[C@H]4CC[C@H](c5nc6cc(C(C)(C)O)c(NC(=O)c7ccnc(C(F)(F)F)n7)cc6s5)CC4)C[C@H]3F)c21 (stereo partly shown) [I-170] | < 10 nM | ≥ 5% |
